Test results reported in ChEMBL document CHEMBL1155152, “Increased expression of ampC in Pseudomonas aeruginosa mutants selected with ciprofloxacin” (2007).
In brackets after ≈: the same amount, converted by molar mass.

How the values were obtained:
Format in all cases: functional
Pseudomonas aeruginosa [1] = experiment: Increase in ampC gene expression in mexCD-oprJ overexpressing Pseudomonas aeruginosa 164M1-94C harboring p26PAD1 plasmid containing ampD gene by RT-PCR relative to wild-type
Pseudomonas aeruginosa [2] = experiment: Antibacterial activity against Pseudomonas aeruginosa 164
Pseudomonas aeruginosa [3] = experiment: Antibacterial activity against Pseudomonas aeruginosa 164M1
Pseudomonas aeruginosa [4] = experiment: Antibacterial activity against Pseudomonas aeruginosa 164M1-94C overexpressing mexCD-oprJ genes
Pseudomonas aeruginosa [5] = experiment: Antibacterial activity against Pseudomonas aeruginosa 164M1-84C overexpressing mexCD-oprJ genes
Pseudomonas aeruginosa [6] = experiment: Antibacterial activity against Pseudomonas aeruginosa 164M1 harboring p26PAD1 plasmid containing ampD gene
Pseudomonas aeruginosa [7] = experiment: Antibacterial activity against mexCD-oprJ overexpressing Pseudomonas aeruginosa 164M1-94C harboring p26PAD1 plasmid containing ampD gene
Pseudomonas aeruginosa [8] = experiment: Antibacterial activity against mexCD-oprJ overexpressing Pseudomonas aeruginosa 164M1-84C harboring p26PAD1 plasmid containing ampD gene
Pseudomonas aeruginosa [9] = experiment: Increase in ampC gene expression in Pseudomonas aeruginosa 164M1 by RT-PCR relative to wild-type
Pseudomonas aeruginosa [10] = experiment: Increase in ampD gene expression in Pseudomonas aeruginosa 164M1 by RT-PCR relative to wild-type
Pseudomonas aeruginosa [11] = experiment: Increase in ampDh2 gene expression in Pseudomonas aeruginosa 164M1 by RT-PCR relative to wild-type
Pseudomonas aeruginosa [12] = experiment: Increase in ampDh3 gene expression in Pseudomonas aeruginosa 164M1 by RT-PCR relative to wild-type
Pseudomonas aeruginosa [13] = experiment: Increase in ampC gene expression in Pseudomonas aeruginosa 164M1-94C overexpressing mexCD-oprJ genes by RT-PCR relative to wild-type
Pseudomonas aeruginosa [14] = experiment: Increase in ampD gene expression in Pseudomonas aeruginosa 164M1-94C overexpressing mexCD-oprJ genes by RT-PCR relative to wild-type
Pseudomonas aeruginosa [15] = experiment: Increase in ampDh2 gene expression in Pseudomonas aeruginosa 164M1-94C overexpressing mexCD-oprJ genes by RT-PCR relative to wild-type
Pseudomonas aeruginosa [16] = experiment: Increase in ampDh3 gene expression in Pseudomonas aeruginosa 164M1-94C overexpressing mexCD-oprJ genes by RT-PCR relative to wild-type
Pseudomonas aeruginosa [17] = experiment: Increase in ampC gene expression in Pseudomonas aeruginosa 164M1-84C overexpressing mexCD-oprJ genes by RT-PCR relative to wild-type
Pseudomonas aeruginosa [18] = experiment: Increase in ampD gene expression in Pseudomonas aeruginosa 164M1-84C overexpressing mexCD-oprJ genes by RT-PCR relative to wild-type
Pseudomonas aeruginosa [19] = experiment: Increase in ampDh2 gene expression in Pseudomonas aeruginosa 164M1-84C overexpressing mexCD-oprJ genes by RT-PCR relative to wild-type
Pseudomonas aeruginosa [20] = experiment: Increase in ampDh3 gene expression in Pseudomonas aeruginosa 164M1-84C overexpressing mexCD-oprJ genes by RT-PCR relative to wild-type
Pseudomonas aeruginosa [21] = experiment: Increase in ampC gene expression in Pseudomonas aeruginosa 164M1 harboring p26PAD1 plasmid containing ampD gene by RT-PCR relative to wild-type

SMILES: CC(C)(O/N=C(\C(=O)N[C@@H]1C(=O)N2C(C(=O)[O-])=C(C[n+]3ccccc3)CS[C@H]12)c1csc(N)n1)C(=O)O [CEFTAZIDIME]
- fold change (FC) (Pseudomonas aeruginosa [1]): 0.91
- MIC (Pseudomonas aeruginosa [2]): 2 µg/mL (≈ 3.66 µM)
- MIC (Pseudomonas aeruginosa [3]): 96 µg/mL (≈ 176 µM)
- MIC (Pseudomonas aeruginosa [4]): 48 µg/mL (≈ 87.8 µM)
- MIC (Pseudomonas aeruginosa [5]): 48 µg/mL (≈ 87.8 µM)
- MIC (Pseudomonas aeruginosa [6]): 4 µg/mL (≈ 7.32 µM)
- MIC (Pseudomonas aeruginosa [7]): 2 µg/mL (≈ 3.66 µM)
- MIC (Pseudomonas aeruginosa [8]): 2 µg/mL (≈ 3.66 µM)
- fold change (FC) (Pseudomonas aeruginosa [9]): 99
- fold change (FC) (Pseudomonas aeruginosa [10]): 1.3
- fold change (FC) (Pseudomonas aeruginosa [11]): 2.6
- fold change (FC) (Pseudomonas aeruginosa [12]): 2.1
- fold change (FC) (Pseudomonas aeruginosa [13]): 1165
- fold change (FC) (Pseudomonas aeruginosa [14]): 1.1
- fold change (FC) (Pseudomonas aeruginosa [15]): 2.6
- fold change (FC) (Pseudomonas aeruginosa [16]): 3.1
- fold change (FC) (Pseudomonas aeruginosa [17]): 1324
- fold change (FC) (Pseudomonas aeruginosa [18]): 1.2
- fold change (FC) (Pseudomonas aeruginosa [19]): 1.5
- fold change (FC) (Pseudomonas aeruginosa [20]): 1.6
- fold change (FC) (Pseudomonas aeruginosa [21]): 1.1
